Test results: patent US20150111815A1, “NOVEL CYCLOSPORIN DERIVATIVES FOR THE TREATMENT AND PREVENTION OF VIRAL INFECTIONS” (S&T Global Inc., priority 2011, published 2015)
Like-named read-outs stand apart in the source and are kept apart here. *1 amine or outer side, *2 acyl side, *3 side chain or, on linkers, in order; H or OH if unused. Where a SMILES comes first, the peptide text is derived from it. [ ]: non-standard residue; d: D form. ξ: configuration not given here. MeBmt = C/C=C/C[C@@H](C)[C@@H](O)[C@H](NC)C(=O)O; X2 = C=CCOC(C)(C)C[C@@H](C(=O)[*:2])N(C)[*:1]; X1 = CCN(CC)CC[C@H](C(=O)[*:2])N(C)[*:1]; X3 = CN(C)CCC[C@H](C(=O)[*:2])N(C)[*:1]; dNMeDab(Me2) = CN[C@H](CCN(C)C)C(=O)O; NMeIle(3ξ) = CCC(C)[C@H](NC)C(=O)O; NMeL = CN[C@@H](CC(C)C)C(=O)O; NMeV = CN[C@H](C(=O)O)C(C)C; Abu = CC[C@H](N)C(=O)O

System: HCV replicon in cell line ET (luc-ubi-neo/ET), Huh7 human hepatoma cells
Experiment: HCV subgenomic replicon assay (luciferase end point)
Type: cell-based
Description: The anti-HCV activity of cyclosporine derivatives were evaluated in the HCV subgenomic replicon assay. The assay use the cell line ET (luc-ubi-neo/ET), which is a Huh7 human hepatoma cell line harboring an HCV replicon with a stable luciferase (Luc) reporter. HCV RNA replication was assessed by quantifying HCV replicon-derived luciferase activity. The antiviral activity of cyclosporine analogs were evaluated after drug treatment, the EC 50 and EC 90 were determined in subsequent assessments by using the luciferase end point (Krieger, N., et al., 2001, J. Virol. 75, 4614-4624; Pietschmann, T., et al., 2002, J. Virol. 76, 4008-4021; each of which is incorporated herein by reference).

[1] = Hepatitis C virus, Huh-7, read-out: Antiviral activity: IC50 (μM)
[2] = HCV replicon-derived luciferase activity, Huh7 ET cells, read-out: Antiviral activity: IC50

Compound	IC50 [1]	IC50 [2]
C/C=C/C[C@@H](C)[C@@H](O)[C@H]1C(=O)N[C@@H](CC)C(=O)N(C)[C@H](CCCN(C)C)C(=O)N(C)[C@@H](C(C)C)C(=O)N[C@@H](C(C)C)C(=O)N(C)[C@@H](CC(C)C)C(=O)N[C@@H](C)C(=O)N[C@H](C)C(=O)N(C)[C@@H](CC(C)C)C(=O)N(C)[C@@H](CC(C)C)C(=O)N(C)[C@@H](C(C)C)C(=O)N1C [Example 43, [(R)-3-(N,N-Dimethylamino)propyl-Sar]-3-[NMeVal]-4-cyclosporin] (cyclo(A[dA][NMeL][NMeL][NMeV][MeBmt][Abu][X3][NMeV]V[NMeL]))	< 0.25 µM	
[(R)-2-(N,N-Dimethylamino)ethyl-Sar]-3-[NMeLeu]-4-cyclosporin		< 0.25 µM
C/C=C/C[C@@H](C)[C@@H](O)[C@H]1C(=O)N[C@@H](CC)C(=O)N(C)[C@H](CCN(CC)CC)C(=O)N(C)[C@@H](CC(C)C)C(=O)N[C@@H](C(C)C)C(=O)N(C)[C@@H](CC(C)C)C(=O)N[C@@H](C)C(=O)N[C@H](C)C(=O)N(C)[C@@H](CC(C)C)C(=O)N(C)[C@@H](CC(C)C)C(=O)N(C)[C@@H](C(C)C)C(=O)N1C [Example 25, [(R)-2-(N,N-Diethylamino)ethyl-Sar]-3-cyclosporin]	< 0.25 µM	
C/C=C/C[C@@H](C)[C@@H](O)[C@H]1C(=O)N[C@@H](CC)C(=O)N(C)[C@H](CCN(CC)CC)C(=O)N(C)[C@@H](CC(C)(C)O)C(=O)N[C@@H](C(C)C)C(=O)N(C)[C@@H](CC(C)C)C(=O)N[C@@H](C)C(=O)N[C@H](C)C(=O)N(C)[C@@H](CC(C)C)C(=O)N(C)[C@@H](CC(C)C)C(=O)N(C)[C@@H](C(C)C)C(=O)N1C [Example 26, [(R)-2-(N,N-Diethylamino)ethyl-Sar]-3-[(γ-hydroxy)-NMeLeu]-4-cyclosporin]	< 0.25 µM	
C/C=C/C[C@@H](C)[C@@H](O)[C@H]1C(=O)N[C@@H](CC)C(=O)N(C)[C@H](CCN(CC)CC)C(=O)N(C)[C@@H](C(C)C)C(=O)N[C@@H](C(C)C)C(=O)N(C)[C@@H](CC(C)C)C(=O)N[C@@H](C)C(=O)N[C@H](C)C(=O)N(C)[C@@H](CC(C)C)C(=O)N(C)[C@@H](CC(C)C)C(=O)N(C)[C@@H](C(C)C)C(=O)N1C [Example 29, [(R)-2-(N,N-Diethylamino)ethyl-Sar]-3-[NMeVal]-4-cyclosporin] (cyclo(A[dA][NMeL][NMeL][NMeV][MeBmt][Abu][X1][NMeV]V[NMeL]))	< 0.25 µM	
C=CCOC(C)(C)C[C@H]1C(=O)N[C@@H](C(C)C)C(=O)N(C)[C@@H](CC(C)C)C(=O)N[C@@H](C)C(=O)N[C@H](C)C(=O)N(C)[C@@H](CC(C)C)C(=O)N(C)[C@@H](CC(C)C)C(=O)N(C)[C@@H](C(C)C)C(=O)N(C)[C@@H]([C@H](O)[C@H](C)C/C=C/C)C(=O)N[C@@H](CC)C(=O)N(C)[C@H](CCN(CC)CC)C(=O)N1C [Example 28, [(R)-2-(N,N-Diethylamino)ethyl-Sar]-3-[(γ-allyloxy)-NMeLeu]-4-cyclosporin] (cyclo(A[dA][NMeL][NMeL][NMeV][MeBmt][Abu][X1][X2]V[NMeL]))	< 0.25 µM	
C/C=C/C[C@@H](C)[C@@H](O)[C@H]1C(=O)N[C@@H](CC)C(=O)N(C)[C@H](CCN(CC)CC)C(=O)N(C)[C@@H](CC(C)(C)OC)C(=O)N[C@@H](C(C)C)C(=O)N(C)[C@@H](CC(C)C)C(=O)N[C@@H](C)C(=O)N[C@H](C)C(=O)N(C)[C@@H](CC(C)C)C(=O)N(C)[C@@H](CC(C)C)C(=O)N(C)[C@@H](C(C)C)C(=O)N1C [Example 27, [(R)-2-(N,N-Diethylamino)ethyl-Sar]-3-[(γ-methoxy)-NMeLeu]-4-cyclosporin]	< 0.25 µM	
C/C=C/C[C@@H](C)[C@@H](O)[C@H]1C(=O)N[C@@H](CC)C(=O)N(C)[C@H](CCCN(C)C)C(=O)N(C)[C@@H](CC(C)(C)O)C(=O)N[C@@H](C(C)C)C(=O)N(C)[C@@H](CC(C)C)C(=O)N[C@@H](C)C(=O)N[C@H](C)C(=O)N(C)[C@@H](CC(C)C)C(=O)N(C)[C@@H](CC(C)C)C(=O)N(C)[C@@H](C(C)C)C(=O)N1C [Example 37, [(R)-3-(N,N-Dimethylamino)propyl-Sar]-3-[(γ-hydroxy)-NMeLeu]-4-cyclosporin]	< 0.25 µM	
C/C=C/C[C@@H](C)[C@@H](O)[C@H]1C(=O)N[C@@H](CC)C(=O)N(C)C(CCCN(C)C)C(=O)N(C)[C@@H](CC(C)C)C(=O)N[C@@H](C(C)C)C(=O)N(C)[C@@H](CC(C)C)C(=O)N[C@@H](C)C(=O)N[C@H](C)C(=O)N(C)[C@@H](CC(C)C)C(=O)N(C)[C@@H](CC(C)C)C(=O)N(C)[C@@H](C(C)C)C(=O)N1C (stereo partly drawn) [[(R,S)-3-(N,N-Dimethylamino)propyl-Sar]-3-cyclosporin]		< 1.5 µM
[(S)-2-(N,N-Diethylamino)ethyl-Sar]-3-cyclosporin		< 5 µM
C=CCOC(C)(C)C[C@H]1C(=O)N[C@@H](C(C)C)C(=O)N(C)[C@@H](CC(C)C)C(=O)N[C@@H](C)C(=O)N[C@H](C)C(=O)N(C)[C@@H](CC(C)C)C(=O)N(C)[C@@H](CC(C)C)C(=O)N(C)[C@@H](C(C)C)C(=O)N(C)[C@@H]([C@H](O)[C@H](C)C/C=C/C)C(=O)N[C@@H](CC)C(=O)N(C)[C@H](CCCN(C)C)C(=O)N1C [Example 41, [(R)-3-(N,N-Dimethylamino)propyl-Sar]-3-[(γ-allyloxy)-NMeLeu]-4-cyclosporin] (cyclo(A[dA][NMeL][NMeL][NMeV][MeBmt][Abu][X3][X2]V[NMeL]))	< 0.25 µM	
C/C=C/C[C@@H](C)[C@@H](O)[C@H]1C(=O)N[C@@H](CC)C(=O)N(C)[C@H](CCN(C)C)C(=O)N(C)[C@@H](C(C)CC)C(=O)N[C@@H](C(C)C)C(=O)N(C)[C@@H](CC(C)C)C(=O)N[C@@H](C)C(=O)N[C@H](C)C(=O)N(C)[C@@H](CC(C)C)C(=O)N(C)[C@@H](CC(C)C)C(=O)N(C)[C@@H](C(C)C)C(=O)N1C (stereo partly drawn) [Example 24, [(R)-2-(N,N-Dimethylamino)ethyl-Sar]-3-[NMeIle]-4-cyclosporin] (cyclo(A[dA][NMeL][NMeL][NMeV][MeBmt][Abu][dNMeDab(Me2)][NMeIle(3ξ)]V[NMeL]))	< 0.25 µM	
C/C=C/C[C@@H](C)[C@@H](O)[C@H]1C(=O)N[C@@H](CC)C(=O)N(C)[C@H](CCN(C)C)C(=O)N(C)[C@@H](CC(C)(C)O)C(=O)N[C@@H](C(C)C)C(=O)N(C)[C@@H](CC(C)C)C(=O)N[C@@H](C)C(=O)N[C@H](C)C(=O)N(C)[C@@H](CC(C)C)C(=O)N(C)[C@@H](CC(C)C)C(=O)N(C)[C@@H](C(C)C)C(=O)N1C [Example 20, [(R)-2-(N,N-Dimethylamino)ethyl-Sar]-3-[(γ-hydroxy)-NMeLeu]-4-cyclosporin]	< 0.25 µM	
C/C=C/C[C@@H](C)[C@@H](O)[C@H]1C(=O)N[C@@H](CC)C(=O)N(C)[C@H](CCCN(C)C)C(=O)N(C)[C@@H](CC(C)(C)OC)C(=O)N[C@@H](C(C)C)C(=O)N(C)[C@@H](CC(C)C)C(=O)N[C@@H](C)C(=O)N[C@H](C)C(=O)N(C)[C@@H](CC(C)C)C(=O)N(C)[C@@H](CC(C)C)C(=O)N(C)[C@@H](C(C)C)C(=O)N1C [Example 39, [(R)-3-(N,N-Dimethylamino)propyl-Sar]-3-[(γ-methoxy)-NMeLeu]-4-cyclosporin]	< 0.25 µM	
C/C=C/C[C@@H](C)[C@@H](O)[C@H]1C(=O)N[C@@H](CC)C(=O)N(C)[C@H](CCCN(C)C)C(=O)N(C)[C@@H](C(C)CC)C(=O)N[C@@H](C(C)C)C(=O)N(C)[C@@H](CC(C)C)C(=O)N[C@@H](C)C(=O)N[C@H](C)C(=O)N(C)[C@@H](CC(C)C)C(=O)N(C)[C@@H](CC(C)C)C(=O)N(C)[C@@H](C(C)C)C(=O)N1C (stereo partly drawn) [Example 45, [(R)-3-(N,N-Dimethylamino)propyl-Sar]-3-[NMeIle]-4-cyclosporin] (cyclo(A[dA][NMeL][NMeL][NMeV][MeBmt][Abu][X3][NMeIle(3ξ)]V[NMeL]))	< 0.25 µM	
C/C=C/C[C@@H](C)[C@@H](O)[C@H]1C(=O)N[C@@H](CC)C(=O)N(C)[C@H](CCN(CC)CC)C(=O)N(C)[C@@H](C(C)CC)C(=O)N[C@@H](C(C)C)C(=O)N(C)[C@@H](CC(C)C)C(=O)N[C@@H](C)C(=O)N[C@H](C)C(=O)N(C)[C@@H](CC(C)C)C(=O)N(C)[C@@H](CC(C)C)C(=O)N(C)[C@@H](C(C)C)C(=O)N1C (stereo partly drawn) [Example 30, [(R)-2-(N,N-Diethylamino)ethyl-Sar]-3-[NMeIle]-4-cyclosporin] (cyclo(A[dA][NMeL][NMeL][NMeV][MeBmt][Abu][X1][NMeIle(3ξ)]V[NMeL]))	< 0.25 µM	
C/C=C/C[C@@H](C)[C@@H](O)[C@H]1C(=O)N[C@@H](CC)C(=O)N(C)[C@@H](CCN(C)C)C(=O)N(C)[C@@H](CC(C)(C)O)C(=O)N[C@@H](C(C)C)C(=O)N(C)[C@@H](CC(C)C)C(=O)N[C@@H](C)C(=O)N[C@H](C)C(=O)N(C)[C@@H](CC(C)C)C(=O)N(C)[C@@H](CC(C)C)C(=O)N(C)[C@@H](C(C)C)C(=O)N1C [Example 32, [(S)-2-(N,N-Dimethylamino)ethyl-Sar]-3-[(γ-hydroxy)-NMeLeu]-4-cyclosporin]	< 5 µM	
C=CCOC(C)(C)C[C@H]1C(=O)N[C@@H](C(C)C)C(=O)N(C)[C@@H](CC(C)C)C(=O)N[C@@H](C)C(=O)N[C@H](C)C(=O)N(C)[C@@H](CC(C)C)C(=O)N(C)[C@@H](CC(C)C)C(=O)N(C)[C@@H](C(C)C)C(=O)N(C)[C@@H]([C@H](O)[C@H](C)C/C=C/C)C(=O)N[C@@H](CC)C(=O)N(C)[C@H](CCN(C)C)C(=O)N1C [Example 22, [(R)-2-(N,N-Dimethylamino)ethyl-Sar]-3-[(γ-allyloxy)-NMeLeu]-4-cyclosporin] (cyclo(A[dA][NMeL][NMeL][NMeV][MeBmt][Abu][dNMeDab(Me2)][X2]V[NMeL]))	< 0.25 µM	
